Read-outs that look alike come from different tables or passages of the source.
Key:
[1] = Intravenous pharmacokinetic study of CBD:HP-β-CD solution in piglets (UHPLC-MS/MS plasma quantification); type: in vivo, Large White piglets; parameters: A (macro constant): unit not given beside the values; γ (macro constant) / α (macro constant) / B (macro constant) / β (macro constant) / C (macro constant): unit not given here; details: for AUC(0-t) / Cmax: piglet plasma, IV 0.3 mg/kg CBD, non-compartmental analysis, normalized to dose
Description: The in vivo study was performed within the PigForLife® (CER Group Facilities) GLP structure (Marloie, Belgium). The study protocols were approved by the Local Ethical Commission before starting the study and complied with the Belgian regulation as published in the «Royal Decree of 29 May 2013 on the protection of experimental animals, A.G.W. 30 November 2017».
Sterile and isotonic CBD:HP-β-CD 100 mM (1.2 mg CBD/mL) solutions were prepared. A HP-β-CD stock solution (200 mM) was prepared by dissolving 31.0 g of HP-β-CD up to 100 mL with milliQ water. CBD:HP-β-CD complexes were prepared by adding an excess of CBD (45 mg) powder to 5 mL of milliQ water and 5 mL of the HP-β-CD stock solution, added with 84 mg of NaCl. The suspensions were kept in a rotating water bath set at 37 °C for 12 h. The suspensions were finally filtered through a 0.2 µm PHENEX® PTFE filter in laminar flow insulator conditions. The osmolarity and the pH value of the solutions were determined using a Freezing Point Osmometer (Löser, Delta Labo, Avignon, France) and a pH meter (Seven Easy, Mettler Toledo, Zaventem, Belgium), respectively. The solutions were injected to three Large White piglets (male and female, between 8 and 10 kg) at a dose of 0.3 mg/kg, as detailed in Table 3.
The animals were born on site and used in good health. The animals were housed together in pens of about 40 m^2 and an enriched environment was provided. Natural temperature and light cycles were used in a straw litter. During storage, the animals were fed ad libitum with a balanced pellet diet and were not given any curative or prophylactic veterinary drugs or additives during the study period. Tap water was available ad libitum. The piglets were fasted overnight ([…]) before receiving the formulations. All piglets were clinically examined before the study and before sampling. Blood samples (2 mL in EDTA tubes) were taken at 5 min, 10 min, 20 min, 30 min 45 min, 60 min, 90 min, 2 h, 4 h and 8 h. Blood samples were stored at 4 °C and centrifuged at 2500× g for 10 min. Plasma samples were then frozen at −80 °C until their analysis.
Pharmacokinetic analyses were evaluated by using the software Phoenix WinNonlin 8.4 version (Certara, Princeton, NJ, USA). Cmax and AUClast were determined through a non-compartmental pharmacokinetic analysis using the linear trapezoidal linear interpolation calculation method. Obtained values were normalized do the dose administered. The volumes of distribution (V1 and Vss), clearance and macro (A, B, C, α, β, γ) and micro (k10, k12, k21, k13, k31) constants were determined assuming a 2- or 3-compartment model. The model offering the best compromise between fitting and the number of parameters was selected based on an F test approach.

[2] = parameters: method as in PMID 34400185; details: reported in the literature; cited from earlier work
[3] = parameters: method as in PMID 35895770; details: horses, IV CBD in DMSO 0.1 mg/kg; cited from earlier work
[4] = parameters: method as in PMID 30534073; details: humans, cited from earlier work
[5] = parameters: method as in PMID 31173966; details: mice, CBD emulsion IV 10 mg/kg; cited from earlier work
[6] = both sexes, Large White, pig, n = 3
[7] = IV-bolus three-compartment model, n = 2
[8] = IV-bolus three-compartment model, n = 3
[9] = IV-bolus two-compartment model, n = 2
[10] = IV-bolus two-compartment model, n = 3
[11] = piglets, IV, two-compartment model

## C=C(C)C1CCC(C(=O)O)=CC1c1c(O)cc(CCCCC)cc1O (centres unmarked) [7-COOH-CBD, 7-COOH-cannabidiol]
[1]; [6]
  AUC(0-t): 3930 ± 572 ng·h/mL
  Cmax: 610 ± 169 ng/mL
[1]; piglet plasma after IV CBD 0.3 mg/kg, first sampling point
  earliest time metabolite concentrations were observed: 5 min
[2]
  metabolite plasmatic concentration relative to that of CBD: 40 fold

## C=C(C)[C@@H]1CCC(C)=C[C@H]1c1c(O)cc(CCCCC)cc1O [CBD, Cannabidiol]
[1]; [7]
  A (macro constant): 638.52 ± 60.91
  B (macro constant): 330.39 ± 41.34
  C (macro constant): 17.71 ± 15.74
  α (macro constant): 12.28 ± 7.90
  β (macro constant): 0.80 ± 0.19
  γ (macro constant): 0.09 ± 0.12
[1]; [8]
  A (macro constant): 640.14 ± 43.16
  C (macro constant): 10.56 ± 6.33
  β (macro constant): 0.70 ± 0.21
  γ (macro constant): 316.02 ± 38.40
[1]; [9]
  A (macro constant): 500.89 ± 129.30
  B (macro constant): 133.91 ± 105.05
  α (macro constant): 2.75 ± 2.18
  β (macro constant): 0.33 ± 0.10
[1]; [10]
  A (macro constant): 542.53 ± 116.45
  B (macro constant): 168.95 ± 95.92
  α (macro constant): 3.71 ± 2.26
  β (macro constant): 0.34 ± 0.07
[1]; both sexes, Large White, pig, plasma, 0.3 mg/kg, piglets, IV, two-compartment model, read-out: Cl (clearance) (converted)
  clearance: 25.2 mL/min
[1]; both sexes, Large White, pig, plasma, 0.3 mg/kg, piglets, IV, two-compartment model, read-out: Vss (volume at steady state)
  Vd: 3.26 ± 0.287 L
[1]; [6]
  AUC(0-t): 639 ± 79.2 ng·h/mL
  Cmax: 600 ± 75.8 ng/mL
[1]; both sexes, Large White, pig, piglets, IV 0.3 mg/kg CBD:HP-β-CD solution, experimental plasma profile, read-out: apparent distribution half-life (converted)
  half-life: 0.25 h
[1]; piglets, IV 0.3 mg/kg CBD:HP-β-CD solution, experimental plasma profile
  elimination half-life: two
[1]; [11]
  Capacity (k12/k21): 1.5
  Depth (k10/k12): 0.58
  V1 (volume of the central compartment): 1512.43 ± 538.41 mL
  fc (ratio of quantity in the central compartment over total quantity, β/k1-0): 0.33
  k1-0 (micro constant): 1.04 ± 0.20 h⁻¹
  k1-2 (micro constant): 1.80 ± 1.43 h⁻¹
  k2-1 (micro constant): 1.20 ± 0.74 h⁻¹
[3]
  half-life: 3.15 h
[4]; after chronic oral administration
  half-life of elimination (t1/2): several days
[4]; following an intravenous injection
  clearance: 74.4 L/h
[4]; pulmonary or single oral administration
  half-life of elimination (t1/2): around one or two
[5]
  clearance: 56.7 mL/min/kg
  half-life: 3.9 h

From publication PMC10820640, “An Intravenous Pharmacokinetic Study of Cannabidiol Solutions in Piglets through the Application of a Validated Ultra-High-Pressure Liquid Chromatography Coupled to Tandem Mass Spectrometry Method for the Simultaneous Quantification of CBD and Its Carboxylated Metabolite in Plasma” (Pharmaceutics, 2024)
